Reference: paper PMC12040169 (PLOS Biology, 2025)

Experiment: in vitro
Settings: human, hela cells, % viability

SMILES | viability at 28.5 h, 10 µM
Cn1cc(-c2nc(C(=O)N3CCN(c4ncccn4)CC3)cs2)cn1 [CBK305626] | 91%
CC(=O)Nc1cccc(-c2cnc(NCc3ccc4c(c3)OCO4)c(C(=O)NCC3COc4ccccc4O3)c2)c1 (stereo not shown) [CBK138473T] | 116%
CCn1cc(CN2C3CCC2CC(O)(c2ccccc2F)C3)cn1 (stereo not shown) [CBK282662] | 86.5%
CC(NC(=O)C1C2C=CC(C2)C1C(=O)O)c1ccccc1 (stereo not shown) [CBK265384] | 109%
CCN(CC)CCN(CC(=O)Nc1c(C)cccc1Cl)Cc1ccccc1 [CBK023143] | 97.7%
COc1ccc(OCCNC(=O)c2ccc(C)nc2NCCCn2ccnc2)cc1 [CBK076385] | 117%
O=C(NCc1ccccn1)/C(=N/O)c1ccccc1 [CBK288472] | 114%
COc1ccc([C@@]23CCC(NC(=O)Nc4ccccc4OC(F)F)C[C@@H]2N(C)CC3)cc1OC (stereo partly shown) [CBK047547T] | 97.9%
Cc1cc(C)n(CCNCc2cc(-c3ccccc3)c[nH]c2=O)n1 [CBK284770] | 101%
O=C(O)c1ccc(-c2n[nH]c(=O)c3ccccc23)cc1 [CBK287148] | 108%
CCCc1c(OCCCCc2nnn[nH]2)ccc(C(C)=O)c1O [CBK007468] | 90.4%
CCC(CC)C(=O)Nc1nc(OC)cnc1-c1ccc(OCOC)cc1 [CBK145207] | 108%
O=C(N[C@H]1CCN2C(=O)c3cc(-c4cccs4)ccc3NC(=O)[C@H]12)c1cnccn1 [CBK289337] | 116%
Cc1cc(Br)ccc1C(=O)Nc1ccc2cc[nH]c2c1 [CBK160046] | 84.1%
Cc1ncccc1COC(=O)Nc1cnc2ccccc2c1 [CBK200128] | 95.9%
CNCc1ccccc1Sc1cccc(OC)c1 [CBK026207C] | 103%
O=c1cc2oc3cc(O)c(O)cc3c(-c3ccc(OCc4cccc([N+](=O)[O-])c4)cc3)c-2cc1O [CBK265408] | 75.3%
Cc1ccc(S(=O)(=O)N(CC(=O)O)c2cccc(Cl)c2)cc1 [CBK262387] | 91.7%
Cc1c(C(=O)O)sc2ncn(CCOc3ccc(Cl)cc3)c(=O)c12 [CBK286808] | 88.5%
Cc1nc(S(=O)(=O)CCn2cccn2)n(CC2CCCO2)c1C (stereo not shown) [CBK305141] | 96.6%
O=C1NC2(CCN(C(=O)Cc3ccc(-c4ccccc4)cc3)CC2)Nc2ccccc21 [CBK286309] | 101%
CCn1cnnc1C1CCN(C(=O)c2ccc(C)c(Cl)c2)CC1 [CBK303997] | 94.9%

SMILES | viability at 28.5 h, 10 µM
COc1ccccc1CCCN1CCC2(C1)NCCc1c2[nH]c2ccccc12 (stereo not shown) [CBK040257] | 91%
CC(C)c1ccc(C(C)NC(=O)Cn2cccc(C(=O)NC3CCCCC3)c2=O)cc1 (stereo not shown) [CBK286044] | 119%
CCN1CC2(CCN(CC(N)=O)CC2)c2ccccc21 [CBK131485] | 107%
CN(C)C(=O)c1ccc(-c2ccc(OC3CCN(C(=O)CCc4cccnc4)CC3)nc2)cc1 [CBK155049] | 93.3%
O=C(CSc1ccc(Cl)cc1)Nc1cc(Cl)ccc1C(=O)O [CBK264217] | 115%
Cc1ncccc1C(=O)NC(c1ccc(F)c(F)c1)c1nccn1C (stereo not shown) [CBK283809] | 90.8%
CCC1CCCCN1S(=O)(=O)c1ccc(-n2ncc(Cl)c(Cl)c2=O)cc1 (stereo not shown) [CBK305038] | 13.9%
CCOc1ccc2[nH]c3c(c2c1)CN(C(=O)C1(C)CCCO1)CC3 (stereo not shown) [CBK282659] | 86.2%
Cc1ccn(CCNC(=O)Cn2c3c(c4ccccc42)CCC3)n1 [CBK282708] | 86.5%
CCOC(=O)N1CCC(NS(=O)(=O)c2cccc3cccnc23)CC1 [CBK045453] | 90.6%
Cc1nn(C)cc1C(C)NC(=O)C1(c2ccccc2F)CCOCC1 (stereo not shown) [CBK281594] | 80.8%
CSc1ccc(-c2cnc(N)c(-c3ccc(C(=O)N4CCOCC4)cc3)n2)cc1 [CBK084539] | 109%
O=C1CCC(=O)N1CCn1c(=O)n(C(=O)CCC2CCCC2)c2ccccc21 [CBK106495] | 96.8%
COc1cc(-c2nccnc2N2CCN(c3ccncc3)CC2)cc(OC)c1OC [CBK036847] | 92%
COc1ccccc1Nc1nc(N)nc(CSc2ncccn2)n1 [CBK266734] | 104%
Cc1ccccc1Nc1nc(N)nc(CN2CCCC2C(=O)N(C)C)n1 (stereo not shown) [CBK305638] | 81%
c1ccc2c(c1)OCC(COc1ccnc(N3CCCN(CCN4CCOCC4)CC3)n1)O2 (stereo not shown) [CBK083976] | 116%
Nc1ccccc1C(=O)NCc1ccncc1 [CBK057024] | 90.1%
CCc1nn(CCN2CCCC2)c(=O)c2cc3sc(C)cc3n12 [CBK284098] | 88.5%
COc1ccc(-c2cc3ccc(OC(C)C(=O)O)cc3oc2=O)cc1 (stereo not shown) [CBK267947] | 101%
CCCn1cc(NC(=O)C2(c3ccccc3)CCC2)ccc1=O [CBK306237] | 95.4%
COc1ccccc1N1CCN(C(=O)N(CCN)CCC(C)c2ccccc2)CC1 (stereo not shown) [CBK002137C] | 88.7%

SMILES | viability at 28.5 h, 10 µM
CC(C)C(NC(=O)C1CCC(C(C)(C)C)CC1)C(=O)O (stereo not shown) [CBK286610] | 95.5%
CCNC(=O)NC1CC(C)(C)Cc2c1cnn2-c1ccc(OC)cc1 (stereo not shown) [CBK307313] | 90.6%
Cc1cn([C@@H]2O[C@H](CO)[C@H](O)C2O)c(=O)[nH]c1=O (stereo partly shown) [CBK201265] | 101%
COc1cc2c(cc1NC(=O)c1cccc([N+](=O)[O-])c1)oc1ccccc12 [CBK262958] | 94.4%
O=C(CC(CN1CCN(Cc2ccccn2)CC1)C(=O)O)Nc1ccc(F)cc1 (stereo not shown) [CBK286800] | 86.8%
CC(=O)c1ccc(S(=O)(=O)NCc2ccc(C(F)(F)F)cc2)cc1 [CBK044314] | 108%
CCOC(=O)c1sc(-c2cccc(C)n2)nc1O [CBK081083] | 84.5%
Cc1ccc(S(=O)(=O)c2ccc(C)c(S(=O)(=O)N3CCC(C)CC3)c2)cc1S(=O)(=O)N1CCC(C)CC1 [CBK261743] | 95.8%
CC(C)[C@H](NC(=O)c1cc2cc(Cl)ccc2n1C)C(=O)N1CCC(C(=O)O)CC1 [CBK286771] | 107%
Cc1ccc(OCC(=O)Nc2sc(C)c(C)c2C#N)c([N+](=O)[O-])c1 [CBK268162] | 101%
O=C1CN(C(=O)c2cccc(Cl)c2)c2ccccc2N1 [CBK017844] | 101%
Cc1ccc(NC(=O)Cn2cnc3sc(C(=O)Nc4ccccc4)c(C)c3c2=O)cc1 [CBK265931] | 101%
Cc1nc2sccn2c1CN1CCC(O)(c2ccc(F)cc2)CC1 [CBK282792] | 98.2%
O=C(Nc1ccc2c(c1)OCO2)C1CCN(S(=O)(=O)c2ccc(Oc3ccccc3)cc2)CC1 [CBK269648] | 85.1%
COC(=O)c1c(NC(=O)COc2ccccc2C(C)C)sc2c1CCCC2 [CBK266722] | 93.5%
Cc1nc(C(F)(F)F)ccc1COC(=O)N1CCOCC1 [CBK200122] | 85.9%
O=C(c1ccco1)N1CCCC(n2cnc3cc(F)ccc32)C1 (stereo not shown) [CBK284475] | 94.8%
S=C(Nc1ccc(Nc2ccccc2)cc1)N1CCN(C/C=C/c2ccccc2)CC1 [CBK266149] | 102%
c1cncc(CCNc2nccnc2-c2cccnc2)c1 [CBK037380] | 93%
O=C(Cn1ncn2c(cc3ccsc32)c1=O)NCc1cccs1 [CBK284197] | 90.3%
O=C(Nc1ccccc1)O[C@@H]1CO[C@H]2[C@@H]1OC[C@@H]2Nc1nccc(-c2cccs2)n1 [CBK289513] | 97.8%
CN(C)CCNCc1cccc(OCc2ccccc2)c1 [CBK278216C] | 89.7%

SMILES | viability at 28.5 h, 10 µM
COc1ccc(-n2ncc3c2CC(C)(C)CC3N)cc1 (stereo not shown) [CBK306789] | 80%
O=C(O)[C@H]1CN(C(=O)CCc2ccco2)C[C@@H]1c1ccc(F)cc1 [CBK283722] | 86.5%
CC(C)(C)c1ccc(N(C2CCNCC2)S(=O)(=O)c2cccc(C(F)(F)F)c2)cc1 [CBK165056T] | 114%
CCn1cncc1CN(CCCn1ccnc1)Cc1ccc(C)s1 [CBK283104] | 93.6%
COc1ccc(Sc2nc3ccccc3nc2C(F)(F)F)cc1OC [CBK093779] | 85%
CC(C)CNc1cc(Cl)c(S(=O)(=O)NCC(C)C)cc1C(=O)O [CBK263405] | 93.5%
Cc1ccc(OC(C)C(=O)N2CCCc3c(cnn3C)C2)cc1 (stereo not shown) [CBK282242] | 98.2%
O=S1(=O)C=C(SCCN2CCCCC2)c2ccccc21 [CBK265328] | 92.6%
CC(Cn1cncn1)NC(=O)c1cccc(S(=O)(=O)NC2CCCC2)c1 (stereo not shown) [CBK304209] | 89%
CN1C[C@@H](NS(=O)(=O)c2ccc(C#N)cc2)C[C@H]1c1nc(-c2ccncc2)no1 [CBK288871] | 86.9%
COc1ccc(N2CCN(/C(=N/S(=O)(=O)c3ccccc3)Nc3nc(C)cc(C)n3)CC2)cc1 [CBK266750] | 88.7%
COc1cc(F)ccc1-c1nc(N)cc2cccnc12 [CBK081176] | 88.9%
Cn1c(SCC(=O)Nc2ccccc2[N+](=O)[O-])nc2ccccc2c1=O [CBK265096] | 106%
OCc1ccccc1-c1nccnc1NCc1ccc2c(c1)OCO2 [CBK038046] | 95.7%
COC(=O)Nc1ccc(S(=O)(=O)N2CCCC(C(=O)O)C2)cc1 (stereo not shown) [CBK265364] | 98.5%
COCCn1cnnc1CCNC(=O)Cc1cccc(O)c1 [CBK307322] | 112%
CCN(CC)Cc1cc(C(C)(C)C)oc1C(=O)O [CBK266013C] | 110%
c1cncc(OCCN2CCN(c3nccnc3OCCN3CCOCC3)CC2)c1 [CBK082914] | 107%
COc1ccc(CNc2cncc(-c3ccc(C(C)C)cc3)n2)cc1 [CBK065514] | 119%
CCc1c(C(=O)N(C)Cc2cnn(C(C)C)c2)[nH]c2ccccc12 [CBK307501] | 92.9%
CC(C)Nc1cc(OC2CCN(C)CC2)ncn1 [CBK113280] | 83.6%

Same assay, conditions: human, hela cells, % viability, bulk resorufin, single well

SMILES | viability at 28.5 h, 10 µM
Cc1cc(C)cc(N2C(=O)/C(=C/c3ccc(OC(C)C(=O)O)cc3)C(=O)NC2=S)c1 (stereo not shown) [CBK264016] | 93.9%
